Tests used:
HCLE cells [1] = experiment: Annexin V/PI/Hoechst staining, confocal microscopy, damaged cells; format: cell-based, human; conditions: 500 mOsm + 10 mM, 16 h
Procedure: Cells undergoing apoptosis or necrosis were identified using Alexa Fluor 488 annexin V/Dead cell apoptosis assay (Invitrogen-Molecular probe) with some modifications. Cells were seeded at 6.5×10^4 cells mL^−1 in 75 cm^2 cell culture flask and incubated overnight. Once the cells reached 70%-80% confluence, they were subjected to different osmolarity treatments for 16 hours. Supernatants were removed and retained for collection of non-adherent cells. Adherent cells were rinsed twice with PBS and detached using 0.05% trypsin. The culture supernatant and trypsin digests were pelleted, rinsed twice in PBS, and combined during resuspenison in annexin-binding buffer. Five microlitres of Alexa Fluor 488 annexin V, 12.5 μg mL^−1 of Hoechst 33342 and 1 μg mL^−1 of propidium iodide (PI) were added to 100 μL of cell suspension containing approximately 1×10^5 cells and incubated at room temperature for 15 minutes. Cells were washed with 200 μL of annexin-binding buffer and deposited onto coverslips. […] Cells stained with annexin V, PI or Hoechst for apoptotic, necrotic or total cells, respectively, were quantified for each image using ImageJ (http://rsbweb.nih.gov/ij/; National Institutes of Health, Bethesda, Md.) to obtain an average value for each treatment.

[2] = Effect on final osmolarity of culture medium (vapour pressure osmometer); format: physicochemical; conditions: up to 10 mM; results not shown
Procedure: (§1) 500 mOsm and exposure time (16 h) to be the most informative under which to observe hyperosmolality induced cellular responses of HCLE (results not shown). Thus, in the present study, a hyperosmotic medium of 500 mOsm and exposure time of 16 h were used throughout. Hyperosmolar media were prepared by the addition of NaCl to the medium. Medium osmolarity was measured using a Vapro 5520 vapour pressure osmometer (Wescor, Logan, Utah). Subconfluent cells were exposed to hyperosmolar media in the presence or absence of betaine (5 or 10 mM). Mitochondrial and proliferation activities for cell viability; TNF-α production; caspase activity and Annexin V/PI staining for apoptosis; and cellular shrinkage were monitored as detailed below.

HCLE cells [3] = experiment: CyQUANT cell number after hyperosmolar medium; format: cell-based, human; conditions: 5 or 10 mM, 500 mOsm, 16 h, vs hyperosmotic control
Procedure: as §1
(§2) MTT viability assay kit was used to measure cell viability (above). CyQUANT cell proliferation assay kit (Invitrogen-Molecular probe, Eugene, Oreg.) was used to determine the cell number. Culture supernatants were removed and centrifuged at 1500 rpm for 10 min to harvest any detached cells from the supernatant. Remaining cells were rinsed once with PBS. […] Fluorescence, indicating cell viability, was measured using SpectraFluor Plus microplate reader (Tecan, Männedorf, Switzerland); 485 nm for excitation and 535 nm for emission maxima.

HCLE cells [4] = experiment: MTT mitochondrial activity after hyperosmolar medium; format: cell-based, human; conditions: 5 or 10 mM, 500 mOsm, 16 h, vs hyperosmotic control
Procedure: as §1, §2

- effect on the final osmolarity of the medium [2]: minimal effect
Structure (SMILES): C[N+](C)(C)CC(=O)[O-] [betaine, trimethylglycine]
- percentage of damaged cells (of the total cells) (HCLE cells [1]): 7.5%
- increase in cell numbers (HCLE cells [3]): 12%
- increase in mitochondrial activity (HCLE cells [4]): 17%

Reference: patent US10912752B2, “Methods and compositions for reducing ocular discomfort” (Brien Holden Vision Institute Limited, priority 2012, dated 2021)
